Source: patent US8058243B2, “Method for treating a brain cancer with ifenprodil” (HSC Research and Development Limited Partnership, priority 2006, dated 2011)
Where a name gives a salt, the structure may show the parent alone. Read-outs that look alike come from different tables or passages of the source.

Test system: murine neural precursor cells (neurosphere cultures)
Assay: HTS of LOPAC library against secondary neurosphere cultures, MTT proliferation assay at 3 μM, day 7 (z score, P value)
Assay type: cell-based, mouse
[1] = yes/no: significantly inhibited neurosphere proliferation (P<0.01) in primary screen
[2] = LOPAC primary screen, neurosphere MTT proliferation, 3 μM, day 7
[3] = yes = significantly inhibited neurosphere proliferation (P<0.01) in the primary screen
[4] = yes/no: significantly inhibited neurosphere proliferation (P<0.01) in the primary screen
[5] = primary LOPAC screen, 3 μM, MTT, neurosphere proliferation
[6] = yes/no: significantly inhibited neurosphere proliferation in the primary screen
[7] = LOPAC screen, neurosphere MTT proliferation, 3 μM, day 7
[8] = LOPAC library screen, 3 μM, MTT, secondary neurosphere cultures, day 7
[9] = LOPAC library screen, 3 μM, MTT, neurosphere cultures
[10] = LOPAC library screen at 3 μM, secondary neurosphere cultures, MTT
[11] = yes/no: significantly inhibited neurosphere proliferation in primary screen

## COc1ccc2c(c1)c(CC(=O)O)c(C)n2Cc1ccc(F)cc1 [1-(4-Fluorobenzyl)-5-methoxy-2-methylindole-3-acetic acid]
168 h, 3 µM
  Z Score: −0.5376
  Z score: −0.538
[1]
  Activity: no

## Cc1[nH]c2ccc(O)cc2c1CCN.O=C(O)/C=C\C(=O)O [2-Methyl-5-hydroxytryptamine maleate]
  Z Score: 0.5718
[2]
  Z score: 0.572
[3]
  Activity: no

## CCn1cnc2c(Nc3cccc(Cl)c3)nc(N[C@@H]3CCCC[C@@H]3N)nc21.Cl [CGP-74514A hydrochloride]
  Z Score: −9.117
[2]
  Z score: −9.117
[4]
  Activity: yes

## CC(=O)SCC[N+](C)(C)C.[Cl-] [Acetylthiocholine chloride]
[5]
  Z score: 0.004
[6]
  Activity: no

## (+)-Cyclazocine
  Z Score: 0.6116
[7]
  Z score: 0.612
[1]
  Activity: no

## COc1ccc(CCN(C)CCCC(C#N)(c2ccc(OC)c(OC)c2)C(C)C)cc1OC.Cl (stereo not drawn) [(B1)-Verapamil hydrochloride]
  Z Score: 1.008

## CC(=O)N[C@H](C(=O)O)C(C)(C)SN=O (racemic) [S-Nitroso-N-acetylpenicillamine]
[8]
  Z Score: −1.645
[2]
  Z score: −1.645
[3]
  Activity: no

## C[N+](C)(C)CCC(=O)c1cccc2ccccc12.[I-] [2-(alpha-Naphthoyl)ethyltrimethylammonium iodide]
168 h, 3 µM
  Z Score: −6.762
  Z score: −6.762
[3]
  Activity: yes

## CCn1c(=O)[nH]c2cc(Cl)c(Cl)cc21 [DCEBIO]
  Z Score: 0.8099
[7]
  Z score: 0.810
[1]
  Activity: no

## CCC1(c2ccccc2)C(=O)NCNC1=O [Primidone]
  Activity: no
[9]
  Z Score: 0.6187
[2]
  Z score: 0.619

## CC(=O)NCCc1c[nH]c2ccccc12 [N-Acetyltryptamine]
  Z Score: 1.02
[5]
  Z score: 1.020
[6]
  Activity: no

## Oc1cc(-c2ccccc2)nc2nc(Cl)ccc12 [7-Chloro-4-hydroxy-2-phenyl-1,8-naphthyridine]
168 h, 3 µM
  Z Score: −0.401
  Z score: −0.401
[1]
  Activity: no

## Cl.Cl.NCCNS(=O)(=O)c1cccc2cnccc12 [H-9 dihydrochloride]
  Z Score: −0.1899
[5]
  Z score: −0.190
[6]
  Activity: no

## O=C(O)[C@H]1CCCN[C@H]1C(=O)O
  Z Score: 0.1553

## O=C(O)/C=C/c1ccc(O)c(O)c1 [Caffeic Acid]
[9]
  Z Score: 0.3199
[7]
  Z score: 0.320
[1]
  Activity: no

## COc1ccc2c(c[n+](C)c3c4cc5c(cc4ccc23)OCO5)c1OC [Chelerythrine (36), Chelerythrine, reference compound]
[8]
  Z Score: −10.67
[2]
  Z score: −10.671
[4]
  Activity: yes

## NCC(CC(=O)O)c1ccc(Cl)cc1 (racemic) [(±)-Baclofen]
[7]
  Z score: −1.069
[1]
  Activity: no

## C#CCN(C)Cc1ccccc1 [Pargyline hydrochloride]
[10]
  Z Score: −0.2794
[2]
  Z score: −0.279
[11]
  Activity: no

## COc1cccc(OC)c1OCCNCC1COc2ccccc2O1.Cl (stereo not drawn) [WB-4101 hydrochloride]
  Z Score: −2.247
[7]
  Z score: −2.247
[1]
  Activity: no

## COc1ccccc1N1CCNCC1.Cl [1-(2-Methoxyphenyl)piperazine hydrochloride]
  Z Score: −0.6388
[2]
  Z score: −0.639
[11]
  Activity: no

## NCCS(=O)O [Hypotaurine]
  Activity: no
  Z Score: 0.2752
  Z score: 0.275

## O=c1c2ccccc2nc2n1CCc1c-2[nH]c2ccccc12 [Rutaecarpine]
168 h, 3 µM
  Z Score: 0.6857
  Z score: 0.686

## NC(=O)NO [Hydroxyurea]
[9]
  Z Score: 1.131
[2]
  Z score: 1.131
[1]
  Activity: no

## C/C(=C\c1ccc(C(=O)O)cc1)c1ccc2c(c1)C(C)(C)CCC2(C)C [TTNPB]
  Z Score: −2.158
[5]
  Z score: −2.158
[6]
  Activity: no

## O=C(C1CCCCC1)N1CC(=O)N2CCc3ccccc3C2C1 (stereo not drawn) [Praziquantel]
[8]
  Z Score: −2.296
[2]
  Z score: −2.296
[3]
  Activity: no

## Ceramide
  Z Score: −0.8267
[5]
  Z score: −0.827
[6]
  Activity: no

## O=c1c(-c2ccc(O)cc2)coc2cc(O)cc(O)c12 [Genistein]
[10]
  Z Score: −0.4689
[2]
  Z score: −0.469
[4]
  Activity: no

## O=c1n(CCCN2CCN(c3cccc(Cl)c3)CC2)nc2ccccn12 [Trazodone hydrochloride]
168 h, 3 µM
  Z Score: −2.644
  Z score: −2.644
[4]
  Activity: yes

## CC(=O)O.O=C(NCC1CCCCN1)c1cc(OCC(F)(F)F)ccc1OCC(F)(F)F (stereo not drawn) [Flecainide acelate]
  Activity: no
[2]
  Z score: −1.498

## C#C[C@]1(O)CC[C@H]2[C@@H]3CCC4=Cc5nc6nc7ccccc7n6cc5C[C@]4(C)[C@H]3CC[C@@]21C [WIN 62,577]
  Z Score: 2.351
[5]
  Z score: 2.351
[6]
  Activity: no

## Cn1c(=O)c2[nH]c(-c3ccc(S(=O)(=O)O)cc3)nc2n(C)c1=O [8-(p-Sulfophenyl)theophylline]
168 h, 3 µM
  Z Score: 1.047
  Z score: 1.047
[6]
  Activity: no

## Cl.NCCC[C@](N)(C(=O)O)C(F)F (racemic)
[10]
  Z Score: −0.4244
[7]
  Z score: −0.424
[1]
  Activity: no

## O=C1CN(/N=C/c2ccc(-c3ccc([N+](=O)[O-])cc3)o2)C(O)=N1 [Dantrolene sodium]
  Activity: no
[9]
  Z Score: 0.7985
[7]
  Z score: 0.798

## Br.CCCN(CCC)C1CCc2cccc(O)c2C1 (racemic) [(±)-8-Hydroxy-DPAT hydrobromide]
[2]
  Z score: 0.656
[4]
  Activity: no

## CCCCC1(C2CCCC2)Cc2cc(OCC(=O)O)c(Cl)c(Cl)c2C1=O (stereo in doubt) [R(+)-Butylindazone]
  Z Score: 0.02924
[7]
  Z score: 0.029
[1]
  Activity: no

## N[C@@H](C(=O)N[C@@H]1C(=O)N2C(C(=O)O)=C(Cl)CS[C@H]12)c1ccccc1 [Cefaclor]
[8]
  Z Score: −3.009
[2]
  Z score: −3.009
[4]
  Activity: yes

## CCOC(=O)[C@]12CC1/C(=N\O)c1ccccc1O2 (mixture of isomers) [CPCCOEt]
[10]
  Z Score: −0.8068
[7]
  Z score: −0.807

## CN1C(C)(C)CCCC1(C)C [Pempidine tartrate]
[8]
  Z Score: −1.719
[2]
  Z score: −1.719
[3]
  Activity: no

## CNCC(O)c1ccc(O)cc1 (stereo not drawn) [(B1)-Synephrine]
  Z Score: −0.1488

## Cl.Cl.Cl.Ic1ccc(N2CCN(Cc3c[nH]c4ncccc34)CC2)cc1 [L-750,667 trihydrochloride]
  Z Score: −1.184
[2]
  Z score: −1.184
[4]
  Activity: no

## C[C@H](CCC(=O)NCCS(=O)(=O)O)[C@H]1CC[C@H]2[C@@H]3[C@H](O)C[C@@H]4C[C@H](O)CC[C@]4(C)[C@H]3C[C@H](O)[C@]12C [Sodium Taurocholate]
  Activity: no
  Z Score: −0.7604
  Z score: −0.760

## NS(=O)(=O)c1cccc2c1c([N+](=O)[O-])cc1nc([O-])c([O-])nc12.[Na+].[Na+] [NBQX disodium]
[8]
  Z Score: −1.675
[2]
  Z score: −1.675
[11]
  Activity: no

## Br.C=CCN1CCc2cc(O)c(O)cc2C(c2ccccc2)C1 (stereo not drawn) [(B1)-SKF 38393, N-allyl-, hydrobromide]
  Z Score: −1.59

## O=C1OC(=O)[C@H]2[C@@H]1[C@@H]1CC[C@H]2O1 [Norcantharidin]
  Z Score: −1.251
[2]
  Z score: −1.251
[3]
  Activity: no

## Br.C=CCN1CCc2c(cc(O)c(O)c2Br)[C@@H](c2ccccc2)C1 [R(+)-6-Bromo-APB hydrobromide]
  Z Score: 1.532
[7]
  Z score: 1.532
[1]
  Activity: no

## N#CC(C#N)=Cc1ccc([N+](=O)[O-])c(O)c1 [Tyrphostin AG 126]
[10]
  Z Score: −0.4102
[5]
  Z score: −0.410
[6]
  Activity: no

## O=C(O)/C=C1\CCCc2ccccc2C1O (stereo not drawn) [NCS-382]
  Z Score: −1.733
[2]
  Z score: −1.733
[3]
  Activity: no

## O.c1cnc2c(c1)ccc1cccnc12 [1,10-Phenanthroline monohydrate]
  Z Score: −0.8855
[2]
  Z score: −0.886
[11]
  Activity: no

## Cc1cc(O)c2c(c1)C(=O)c1cc(O)cc(O)c1C2=O [Emodin]
168 h, 3 µM
  Z Score: −0.4835
  Z score: −0.483
[1]
  Activity: no

## CN(C)CCCCSC(=N)N.Cl.Cl [SKF 91488 dihydrochloride]
  Z Score: −0.766
[2]
  Z score: −0.766
[11]
  Activity: no

## CCN(CC)C(=O)NC1C=C2c3cccc4[nH]cc(c34)C[C@H]2N(C)C1.O=C(O)/C=C\C(=O)O (stereo partly drawn) [R(+)-Lisuride hydrogen maleate]
  Z Score: −1.041
[2]
  Z score: −1.041

## CCCNCC(O)COc1ccccc1C(=O)CCc1ccccc1 (stereo not drawn) [Propafenone hydrochloride]
[10]
  Z Score: −0.9673
[2]
  Z score: −0.967
[3]
  Activity: no

## CN1CCC(=C2c3ccccc3CC(=O)c3sccc32)CC1 [Ketotifen fumarate]
[9]
  Z Score: 0.9573
[2]
  Z score: 0.957
[1]
  Activity: no

## Dihydroergocristine methanesulfonate
  Z Score: −0.773
[7]
  Z score: −0.773
[1]
  Activity: no

## Cl.NC[C@@H]1O[C@H](C23CC4CC(CC(C4)C2)C3)Cc2c1ccc(O)c2O [A-77636 hydrochloride]
  Z Score: 1.44
[5]
  Z score: 1.440
[6]
  Activity: no

## CN(C)c1cc2c(Nc3ccc4c(cnn4Cc4ccccc4)c3)ncnc2cn1 [GW2974]
  Z Score: −0.5164
[2]
  Z score: −0.516
[1]
  Activity: no
